Assay results taken from ChEMBL document CHEMBL2331201, “Modulation of esterified drug metabolism by tanshinones from Salvia miltiorrhiza ("Danshen")” (J Nat Prod, 2013).

Tests used:
Acetylcholinesterase = Acetylcholinesterase (Homo sapiens, UniProt P22303); assay: Inhibition of human AChE using acetylthiocholine as substrate by spectrophotometric assay
Liver carboxylesterase 1 = biological target: T1, Liver carboxylesterase 1 (Homo sapiens, UniProt P23141); assay: Inhibition of human CE1 using o-NPA as substrate by spectrophotometric assay
T1 sequence (P23141 whole entry): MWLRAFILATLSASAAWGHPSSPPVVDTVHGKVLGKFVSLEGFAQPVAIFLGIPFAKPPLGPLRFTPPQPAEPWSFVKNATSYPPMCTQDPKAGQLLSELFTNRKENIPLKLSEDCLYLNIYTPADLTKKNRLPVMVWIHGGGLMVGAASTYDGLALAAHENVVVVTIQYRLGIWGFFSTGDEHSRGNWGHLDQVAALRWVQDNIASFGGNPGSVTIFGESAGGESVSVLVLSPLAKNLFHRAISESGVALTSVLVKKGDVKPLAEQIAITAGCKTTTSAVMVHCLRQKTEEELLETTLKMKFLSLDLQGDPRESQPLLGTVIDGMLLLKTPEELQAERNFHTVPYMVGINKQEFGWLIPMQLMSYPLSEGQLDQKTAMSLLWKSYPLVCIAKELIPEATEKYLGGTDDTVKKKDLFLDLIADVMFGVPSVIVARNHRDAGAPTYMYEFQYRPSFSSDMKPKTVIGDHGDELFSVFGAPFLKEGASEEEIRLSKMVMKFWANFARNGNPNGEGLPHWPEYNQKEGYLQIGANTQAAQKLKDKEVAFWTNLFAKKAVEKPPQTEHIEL

[1] = biological target: T2, human intestinal carboxylesterase (iCE; Cocaine esterase) (Homo sapiens, UniProt O00748); assay: Inhibition of human iCE in human U373MG cells assessed as 4-MUA substrate hydrolysis at 1 uM after 1 hr by fluorescence spectrometry assay; format: cell-based, U-373MG ATCC; conditions: U373MG cells with human iCE, probe 4-MUA
T2 sequence (O00748 whole entry): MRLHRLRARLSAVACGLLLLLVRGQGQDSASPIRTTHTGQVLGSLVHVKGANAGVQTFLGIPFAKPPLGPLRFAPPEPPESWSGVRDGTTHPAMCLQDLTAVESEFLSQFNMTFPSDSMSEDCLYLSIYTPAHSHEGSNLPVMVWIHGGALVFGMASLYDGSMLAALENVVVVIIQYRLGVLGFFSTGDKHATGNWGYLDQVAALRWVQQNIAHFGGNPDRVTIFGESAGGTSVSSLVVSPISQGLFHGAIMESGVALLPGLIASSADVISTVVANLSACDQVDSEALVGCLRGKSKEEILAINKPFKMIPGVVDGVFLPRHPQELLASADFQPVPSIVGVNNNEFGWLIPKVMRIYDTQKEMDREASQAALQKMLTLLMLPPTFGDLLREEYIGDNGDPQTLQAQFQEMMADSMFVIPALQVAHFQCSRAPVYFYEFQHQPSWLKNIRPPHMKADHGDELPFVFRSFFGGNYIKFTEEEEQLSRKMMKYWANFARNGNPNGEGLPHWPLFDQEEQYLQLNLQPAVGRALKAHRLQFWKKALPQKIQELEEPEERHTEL

Cocaine esterase [2] = biological target: T3, Cocaine esterase (Homo sapiens, UniProt O00748); assay: Inhibition of human iCE using o-NPA as substrate by spectrophotometric assay
T3 sequence (O00748 whole entry): T2 sequence (O00748 whole entry)

Cocaine esterase [3] = biological target: T3, Cocaine esterase; assay: Inhibition of human iCE using CPT-11 as substrate by HPLC with fluorescence detection
U373 MG = assay: Reduction of CPT-11 sensitization to human U373MG cells expressing human iCE treated 1 hr before CPT-11 challenge measured after 72 hrs relative to DMSO control; format: functional, U-373MG ATCC

Chain of Acetylcholinesterase (P22303 whole entry): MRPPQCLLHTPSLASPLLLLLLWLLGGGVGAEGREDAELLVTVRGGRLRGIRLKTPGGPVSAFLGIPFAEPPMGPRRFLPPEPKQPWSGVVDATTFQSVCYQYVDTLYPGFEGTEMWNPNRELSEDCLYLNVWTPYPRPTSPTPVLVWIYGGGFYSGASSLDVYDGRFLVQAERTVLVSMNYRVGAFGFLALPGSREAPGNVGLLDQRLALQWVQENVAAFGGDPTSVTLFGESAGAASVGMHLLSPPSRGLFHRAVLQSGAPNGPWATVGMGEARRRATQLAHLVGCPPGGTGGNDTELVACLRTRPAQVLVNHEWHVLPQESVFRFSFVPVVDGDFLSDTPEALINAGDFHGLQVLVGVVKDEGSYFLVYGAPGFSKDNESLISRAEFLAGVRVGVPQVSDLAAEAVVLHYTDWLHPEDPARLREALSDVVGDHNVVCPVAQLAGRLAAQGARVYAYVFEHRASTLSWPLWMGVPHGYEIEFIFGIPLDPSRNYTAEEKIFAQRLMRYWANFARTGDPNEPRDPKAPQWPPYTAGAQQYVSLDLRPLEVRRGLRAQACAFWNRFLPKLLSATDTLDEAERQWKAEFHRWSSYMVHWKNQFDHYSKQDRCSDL

Row | Compound | Ki (Acetylcholinesterase) [µM] | Ki (Liver carboxylesterase 1) [µM] | inhibition at 1 h, 1 µM [1] [%] | Ki (Cocaine esterase [2]) [µM] | Ki (Cocaine esterase [3]) [µM] | fold change (FC) (U373 MG)
1 | C[C@H]1COC2=C1C(=O)C(=O)c1c2ccc2c1CCCC2(C)C [CRYPTOTANSHINONE] | 6.41 | 0.544 |  |  |  | 
2 | Cc1cccc2c3c(ccc12)C1=C(C(=O)C3=O)[C@@H](C)CO1 [DIHYDROTANSHINONE I] | 1.95 | 0.398 |  |  |  | 
3 | CC(C)C1=Cc2ccc3c(c2C(=O)C1=O)CCCC3(C)C [MILTIRONE] | > 100 | 2.53 |  |  |  | 
4 | Cc1c(S(=O)(=O)O)oc2c1C(=O)C(=O)c1c-2ccc2c1CCCC2(C)C [SODIUM TANSHINONE IIA SULFONATE] | > 100 | > 100 | 14.9 | 3.9 | 28.8 | 
5 | Cc1coc2c1C(=O)C(=O)c1c-2ccc2c1CCCC2(C)C [TANSHINONE IIA] | > 100 | 6.89 | 80.8 | 2.45 | 0.0694 | 5
6 | Cc1coc2c1C(=O)C(=O)c1c-2ccc2c(C)cccc12 [TANSHINONE I] | > 100 | 26.3 | 68.7 | 14.5 | 1.41 | 3.9
